Results published in PubChem BioAssay (NCI).
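Interpolation was linear, between the two tested concentrations surrounding the appropriate level; five concentrations were tested over 48 hours in 96-well plates. GI50 marks 50% less growth. TGI marks complete inhibition of growth.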

How the values were obtained:
Test in all cases: NCI anticancer screen, dose series, 48 h
SK-MEL-2 melanoma = system: SK-MEL-2 melanoma
IGROV1 ovarian = system: IGROV1 ovarian
M14 melanoma = system: M14 melanoma
UACC-62 melanoma = system: UACC-62 melanoma
SN12C renal = system: SN12C renal
RXF 393 renal = system: RXF 393 renal
SK-OV-3 ovarian = system: SK-OV-3 ovarian
SNB-75 CNS = system: SNB-75 CNS
TK-10 renal = system: TK-10 renal
A498 renal = system: A498 renal

| Structure (SMILES) | TGI (SK-MEL-2 melanoma) [µM] | TGI (IGROV1 ovarian) [µM] | TGI (M14 melanoma) [µM] | TGI (UACC-62 melanoma) [µM] | TGI (SN12C renal) [µM] | TGI (RXF 393 renal) [µM] | TGI (SK-OV-3 ovarian) [µM] | TGI (SNB-75 CNS) [µM] | GI50 (TK-10 renal) [µM] | TGI (TK-10 renal) [µM] | GI50 (SK-MEL-2 melanoma) [µM] | GI50 (IGROV1 ovarian) [µM] | GI50 (M14 melanoma) [µM] | GI50 (UACC-62 melanoma) [µM] | GI50 (SN12C renal) [µM] | GI50 (A498 renal) [µM] | TGI (A498 renal) [µM] | GI50 (SK-OV-3 ovarian) [µM] | GI50 (SNB-75 CNS) [µM] | GI50 (RXF 393 renal) [µM] |
| --- | --- | --- | --- | --- | --- | --- | --- | --- | --- | --- | --- | --- | --- | --- | --- | --- | --- | --- | --- | --- |
| C=C[Si](C)(C)COC(=O)/C(C#N)=C/C=C/c1ccccc1 | > 100 | > 100 | > 100 | > 100 | > 100 | > 100 | > 100 | 94 | – | – | – | – | – | – | – | – | – | – | – | – |
| O=C(Nc1cc(C(F)(F)F)cc(C(F)(F)F)c1)Nc1ccc(OCc2nnc(-c3ccc(Cl)cc3)o2)c(F)c1 | 6.26 | 39.2 | 11.1 | 11.6 | 15.7 | – | 9.51 | 5.37 | 4.39 | 33.9 | 2.73 | 3.75 | 2.72 | 1.79 | 2.61 | 1.91 | 6.5 | 2.69 | 1.32 | – |
| COc1cc2oc(-c3cccc(C(=O)Nc4ccc(C)cc4)c3)cc(=O)c2c(OC)c1OC | 9.55 | > 100 | 2.23 | 6.42 | > 100 | 5.91 | 68.4 | 5.38 | 6.89 | > 100 | 3.33 | 2.99 | 0.503 | 2.35 | 1.91 | – | – | 3.13 | 1.16 | 0.775 |
| COC1C(O)CC(OC2CC(OC3CC(O[C@@H]4C(=O)c5c(cc6cc(OC7CC(OC8CC(O)C(O)C(C)O8)C(O)C(C)O7)c(C)c(O)c6c5O)C[C@H]4[C@H](OC)C(=O)[C@@H](O)[C@@H](C)O)OC(C)C3O)OC(C)C2O)OC1C (stereo not given in full) | < 0.0205 | > 100 | 0.116 | 0.265 | > 60.5 | – | > 100 | 0.447 | – | > 39.8 | – | 0.0363 | – | – | – | < 0.01 | 0.0827 | – | – | – |
| CC(=O)N1N=C(c2ccc(Nc3nc(Nc4ccc(F)cc4)nc(Nc4ccc(Cl)cc4)n3)cc2)CC1c1ccc(N(C)C)cc1 (stereo not given) | – | 15.8 | 10.8 | 7.79 | 33.3 | 5.33 | > 31.2 | 20.3 | 8.59 | 31 | – | 2.96 | 3.05 | 2.26 | 6.1 | 14.4 | 50.5 | 6.82 | 3.02 | 1.63 |
| COc1ccc(C2CC(c3cccc(OC)c3)=NN2C(=O)c2cc(OC)c(OC)c(OC)c2)cc1 (stereo not given) | > 100 | > 100 | > 29.3 | > 100 | > 100 | – | > 100 | > 100 | – | > 100 | 10.3 | 1.49 | 1.56 | 1.1 | 5.03 | 1.12 | – | 3.66 | 0.624 | – |
| Cc1cccc(Cl)c1NC(=O)c1cccc([N+](=O)[O-])c1O | – | > 100 | > 100 | 93.9 | > 100 | 50.7 | > 100 | > 100 | – | – | – | – | – | – | – | – | > 100 | – | – | – |
| COc1ccc(C2N3CCCCC3[C@@H]3c4[nH]c5ccccc5c4CCN23)c(OC)c1 (stereo not given in full) | 34.7 | > 100 | 30.5 | 31 | 33.8 | 34.6 | 92.3 | – | – | 69.1 | – | – | – | – | – | – | 30.1 | – | – | – |
| NC(=NCCO)c1ccc(N2CCCN(c3ccc(C(N)=NCCO)cc3)CC2)cc1 | – | – | > 100 | > 100 | > 100 | – | – | > 100 | > 100 | > 100 | – | – | > 100 | > 100 | 8.8 | – | – | – | > 100 | – |
| Nc1cc(N)cc(Cc2ccccc2)c1 | > 100 | > 100 | > 100 | – | > 100 | > 100 | > 100 | – | – | > 100 | – | – | – | – | – | – | > 100 | – | – | – |
| O=[N+]([O-])c1ccc2nc3ccscc-3c2c1 | 77.7 | > 100 | 32.4 | 65.6 | – | – | 86.3 | – | – | > 100 | – | – | – | – | – | – | 53.3 | – | – | – |
| CCOc1ccc2c(c1)C(=O)c1c-2n(CCCN)c(=O)c2cc([N+](=O)[O-])ccc12 | 3.27 | – | 1.19 | 1.82 | 1.93 | 1.96 | – | – | 1.27 | 2.78 | 1.53 | – | 0.0343 | 0.0768 | 0.0667 | 0.679 | 2.06 | – | – | 0.499 |
| O=C(Nc1nc(-c2ccccc2)cs1)c1cc(O)c(O)c(O)c1 | – | 22.8 | 44 | 16.5 | 29.9 | 19.7 | 41.9 | > 100 | 3.62 | 59.4 | – | 3.12 | 7.9 | 3.02 | 3.19 | 5.41 | 28.2 | 12 | 1.92 | 3.55 |
| C=C(CN(C)Cc1ccccc1)c1ccc(C(=O)Nc2ccccc2N)cc1 | 40.5 | 9.35 | 41.2 | 18.4 | – | – | 14.4 | – | 7.12 | 17.8 | 8.73 | 0.606 | 13.4 | 2.16 | – | – | – | 5.28 | – | – |
| COC(=O)[C@@H]1[C@H](O)[C@H](C)[C@H](O)[C@H](C)/C=C\C=C(C)C(=O)Nc2c(C)c(OC(C)=O)c3c(c2O)C(=O)C(C)=C2OCOC(=C23)C(C)=C[C@@](C)(O)[C@H](O)[C@@H](C)[C@H]1OC(C)=O | – | > 100 | > 100 | – | > 100 | > 100 | – | > 100 | – | – | – | – | – | – | – | – | – | – | – | – |
| CCOC(=O)C1=C(C)N(NC(=O)OC)C2(N)N(NC(=O)OC)C(C)=C(C(=O)OCC)C12C#N (stereo not given) | > 100 | > 100 | > 100 | > 100 | > 100 | – | > 100 | > 100 | – | – | – | – | – | – | – | – | > 100 | – | – | – |
| Cc1cc(S(=O)(=O)Nc2nc3ccccc3[nH]2)c(SCc2ccccc2)cc1Cl | > 100 | > 100 | > 100 | > 100 | > 100 | > 100 | > 100 | – | 38 | > 100 | > 100 | 82 | > 100 | > 100 | 29.6 | > 100 | > 100 | 70.3 | – | > 100 |
| CC1(C)Cc2nnsc2C2=C1C(=O)CCS2 | > 100 | > 100 | > 100 | > 100 | > 100 | > 100 | > 100 | > 100 | – | > 100 | – | – | – | – | – | – | – | – | – | – |
